Earlier results as cited in US10857195B2, “Plant extracts for improving sleep” (Kemin Industries, Inc., priority 2014, dated 2020).

Test system: aging mice
Conditions: RA administered to aging mice

For `O=C(/C=C/c1ccc(O)c(O)c1)O[C@H](Cc1ccc(O)c(O)c1)C(=O)O` [RA, Rosmarinic acid], the “catalase (CAT) activity in the brain” value is listed as “increased”, the “malondialdehyde (MDA) in the brain” value is listed as “decreasing” and the “superoxide dismutase (SOD) activity in the brain” value is listed as “increased”.
